Assay results: PMC3894639 (Pharmacogenetics and genomics, 2013)
Substitutions are numbered along the chain they refer to. Where a name gives a salt, the structure may show the parent alone. Read-outs that look alike come from different tables or passages of the source.

Key:
[1] = molecular target: T1, OATP1B1 (Homo sapiens, UniProt Q9Y6L6)
T1 sequence (Q9Y6L6 1-691): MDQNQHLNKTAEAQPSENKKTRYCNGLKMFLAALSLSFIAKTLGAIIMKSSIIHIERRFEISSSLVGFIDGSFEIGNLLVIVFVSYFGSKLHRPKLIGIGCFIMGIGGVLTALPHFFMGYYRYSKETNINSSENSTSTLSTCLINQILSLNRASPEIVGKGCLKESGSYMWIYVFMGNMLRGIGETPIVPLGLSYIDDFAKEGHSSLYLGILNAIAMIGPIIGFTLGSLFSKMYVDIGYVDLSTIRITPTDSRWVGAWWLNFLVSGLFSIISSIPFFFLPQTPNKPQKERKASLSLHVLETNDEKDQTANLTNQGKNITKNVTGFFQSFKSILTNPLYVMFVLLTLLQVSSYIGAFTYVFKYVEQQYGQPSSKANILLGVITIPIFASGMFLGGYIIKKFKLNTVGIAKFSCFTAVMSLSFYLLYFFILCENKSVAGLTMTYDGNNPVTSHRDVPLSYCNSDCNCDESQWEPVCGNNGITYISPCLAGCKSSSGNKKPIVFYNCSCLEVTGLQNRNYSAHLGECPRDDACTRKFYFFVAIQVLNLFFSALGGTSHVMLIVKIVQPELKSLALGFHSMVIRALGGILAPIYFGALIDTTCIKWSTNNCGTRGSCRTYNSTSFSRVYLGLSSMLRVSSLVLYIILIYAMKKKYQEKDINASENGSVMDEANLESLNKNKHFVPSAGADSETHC

[2] = cited from earlier work
[3] = molecular target: T1, OATP1B1; assay: Prediction of clinical drug-drug interactions; conditions: for R (CER): cerivastatin as substrate; for Iin,max: Fa 1, Ka 0.1/min, Qh 1500 ml/min
[4] = molecular target: T1, OATP1B1; remark: listed apart in the source
[5] = protein unbound fraction; ref literature; cited from earlier work
[6] = test system: cerivastatin-induced rhabdomyolysis; conditions: cited from earlier work
[7] = molecular target: T2, OATP1B1 reference (Homo sapiens, UniProt Q9Y6L6); conditions: 20 nmol/l [3H]-ES, 5 min, 37°C
T2 sequence (Q9Y6L6 1-691): T1 sequence (Q9Y6L6 1-691)

[8] = test system: HEK293/FRT cells, empty vector; assay: Uptake by HEK293/FRT cells with empty vector; format: cell-based, human
[9] = molecular target: T3, OATP1B1 T345M (Homo sapiens, UniProt Q9Y6L6, T345M); conditions: 20 nmol/l [3H]-ES
T3 sequence (Q9Y6L6 1-691 T345M): T1 sequence (Q9Y6L6 1-691) with T345M

[10] = molecular target: T4, OATP1B1*15 (Homo sapiens, UniProt Q9Y6L6, N130D/V174A); conditions: 20 nmol/l [3H]-ES
T4 sequence (Q9Y6L6 1-691 N130D/V174A): T1 sequence (Q9Y6L6 1-691) with N130D, V174A

[11] = test system: OATP1B1 FS (974insGT); conditions: 5 nmol/l [3H]-CER; frameshift insertion
[12] = test system: SLCO1B1 521T>C; conditions: SLCO1B1 521T>C polymorphism; cited from earlier work
[13] = 5 nmol/l [3H]-CER, concentrations up to 100 µmol/l
[14] = 20 nmol/l [3H]-ES, concentrations up to 100 µmol/l
[15] = concentrations up to 3 µmol/l, limited by solubility
[16] = at the oral dose listed per drug in Table 3 (clopidogrel 75 mg)
[17] = R=1+fu×Iin,max/IC50, ES as substrate, oral dose listed per drug in Table 3

## COC(=O)[C@H](c1ccccc1Cl)N1CCC2SC(=O)C=C2C1 (some centres unmarked) [2-Oxo clopidogrel, 2-oxo clopidogrel]
[1]
  IC50: 8.18 µM
[1]; [13]
  Inhibition of OATP1B1-mediated uptake of cerivastatin (in words): inhibited
[2]; clopidogrel oral dose 600 mg
  Cmax: 0.05 ng/mL
[3]; ES as substrate, clopidogrel oral dose 600 mg
  R (ES): 1.26
[3]; clopidogrel oral dose 600 mg
  R (CER): 1.29
  Iin,max: 118.69 µmol/L
[4]
  IC50: 8.97 µM
[4]; [14]
  Inhibition of OATP1B1-mediated uptake of ES (in words): inhibited
[5]
  fu: 0.02

## CCOC(=O)C1=C(COCCN)NC(C)=C(C(=O)OC)C1c1ccccc1Cl (centres unmarked) [Amlodipine, amlodipine]
[1]
  IC50: 35.5 µM
[4]
  IC50: 39.6 µM

## Cc1ccc(-c2cc(C(F)(F)F)nn2-c2ccc(S(N)(=O)=O)cc2)cc1 [Celecoxib, celecoxib]
[1]; [13]
  Inhibition of OATP1B1-mediated uptake of cerivastatin (in words): did not inhibit
[4]; [14]
  Inhibition of OATP1B1-mediated uptake of ES (in words): did not inhibit

## O=C(O)[C@H]1O[C@@H](OC(=O)[C@H](c2ccccc2Cl)N2CCc3sccc3C2)[C@H](O)[C@@H](O)[C@@H]1O [Clopidogrel acyl glucuronide, clopidogrel acyl glucuronide]
[1]; [13]
  Inhibition of OATP1B1-mediated uptake of cerivastatin (in words): inhibited
[4]; [14]
  Inhibition of OATP1B1-mediated uptake of ES (in words): inhibited

## COC(=O)[C@H](c1ccccc1Cl)N1CCc2sccc2C1 [Clopidogrel, Clopidogrel hydrogen sulfate]
[1]
  IC50: 3.95 µM
[1]; [13]
  Inhibition of OATP1B1-mediated uptake of cerivastatin (in words): inhibited
[1]; human, probe [3H]-cerivastatin, 5 nmol/l
  inhibition at 5 min, 100 µmol/l: 52.7%
[2]; clopidogrel oral dose 600 mg
  Cmax: 31.4 ng/mL
[6]; clopidogrel use in the absence of gemfibrozil use, 95% CI 12.5-182
  Odds ratio for cerivastatin-induced rhabdomyolysis: 47.8
[6]; clopidogrel use in the presence of gemfibrozil use, 95% CI 6.1-143
  Odds ratio for cerivastatin-induced rhabdomyolysis: 29.6
[3]; clopidogrel oral dose 600 mg
  R (CER): 1.63
  Iin,max: 124.40 µmol/L
[4]; [14]
  Inhibition of OATP1B1-mediated uptake of ES (in words): inhibited
[4]; human, probe [3H]-estrone-3-sulfate, 20 nmol/l
  IC50 at 5 min: > 100 µM

## C[C@]12CC[C@@H]3c4ccc(OS(=O)(=O)O)cc4CC[C@H]3[C@@H]1CCC2=O [ES, [^3H]-Estrone-3-sulfate ammonium salt]
[7]
  ES transport rate: 0.2±0.01 pmol/mg of protein/min
[8]; 20 nmol/l [3H]-ES
  ES transport rate: 0.01±0.006 pmol/mg of protein/min
[9]
  ES uptake, fraction of reference: 0.43±0.07 of reference
[10]
  Decrease in ES transport vs reference: 66%

## C[C@]1(O)CC[C@H]2[C@@H]3CCC4=CC(=O)CC[C@]4(C)[C@@]3(F)[C@@H](O)C[C@@]21C [Fluoxymesterone]
[1]; [15]
  Inhibition of OATP1B1-mediated uptake of cerivastatin (in words): no inhibitory effects
[4]; [15]
  Inhibition of OATP1B1-mediated uptake of ES (in words): no inhibitory effects

## COc1ccc(Cl)cc1C(=O)NCCc1ccc(S(=O)(=O)NC(=O)NC2CCCCC2)cc1 [Glyburide, glyburide]
[5]
  fu: 0.002

## N[C@@H](Cc1cc(I)c(Oc2cc(I)c(O)c(I)c2)c(I)c1)C(=O)O [Levothyroxine, levothyroxine]
[1]
  IC50: 0.88 µM
[1]; [13]
  Inhibition of OATP1B1-mediated uptake of cerivastatin (in words): inhibited
[2]; [16]
  Cmax: 591 ng/mL
[3]; [17]
  R (ES): 1.00
[4]
  IC50: 2.04 µM
[4]; [14]
  Inhibition of OATP1B1-mediated uptake of ES (in words): inhibited
[5]
  fu: 0.01

## CC(C)(O)c1ccccc1CC[C@@H](SCC1(CC(=O)O)CC1)c1cccc(/C=C/c2ccc3ccc(Cl)cc3n2)c1 [Montelukast, montelukast sodium]
[1]
  IC50: 2.04 µM
[1]; [13]
  Inhibition of OATP1B1-mediated uptake of cerivastatin (in words): inhibited
[2]; in vivo, po, 75 mg
  Cmax: 542 ng/mL
[3]; [17]
  R (ES): 1.01
[4]
  IC50: 1.4 µM
[4]; [14]
  Inhibition of OATP1B1-mediated uptake of ES (in words): inhibited

## CCc1ccc(CCOc2ccc(CC3SC(=O)NC3=O)cc2)nc1 (centres unmarked) [Pioglitazone, pioglitazone hydrochloride]
[1]
  IC50: 39.6 µM
[1]; [13]
  Inhibition of OATP1B1-mediated uptake of cerivastatin (in words): inhibited
[2]; in vivo, po, 75 mg
  Cmax: 1500 ng/mL
[3]; [17]
  R (ES): 1.01
[4]
  IC50: 6.8 µM
[4]; [14]
  Inhibition of OATP1B1-mediated uptake of ES (in words): inhibited

## CO[C@H]1/C=C/O[C@@]2(C)Oc3c(C)c(O)c4c(O)c(c(/C=N/N5CCN(C)CC5)c(O)c4c3C2=O)NC(=O)/C(C)=C\C=C\[C@H](C)[C@H](O)[C@@H](C)[C@@H](O)[C@@H](C)[C@H](OC(C)=O)[C@@H]1C [Rifampin, rifampin]
[1]
  IC50: 5.65 µM
[2]; [16]
  Cmax: 10000 ng/mL
[3]; [17]
  R (ES): 8.56
[4]
  IC50: 0.88 µM

## CS(=O)(=O)c1ccc(C2=C(c3ccccc3)C(=O)OC2)cc1 [Rofecoxib, rofecoxib]
[1]
  IC50: 1.17 µM
[1]; [13]
  Inhibition of OATP1B1-mediated uptake of cerivastatin (in words): inhibited
[2]; [16]
  Cmax: 320 ng/mL
[3]; [17]
  R (ES): 1.15
[4]
  IC50: 5.65 µM
[4]; [14]
  Inhibition of OATP1B1-mediated uptake of ES (in words): inhibited

## CN(CCOc1ccc(CC2SC(=O)NC2=O)cc1)c1ccccn1 (centres unmarked) [Rosiglitazone, Rosiglitazone-potassium salt]
[1]
  IC50: 43.4 µM
[2]; [16]
  Cmax: 598 ng/mL
[4]
  IC50: 4.27 µM

## COCc1c(C(C)C)nc(C(C)C)c(/C=C/[C@@H](O)C[C@@H](O)CC(=O)O)c1-c1ccc(F)cc1 [cerivastatin, [^3H]-Cerivastatin sodium salt]
[11]
  Cerivastatin uptake, % of reference: 3.4 % of reference
[8]; 5 nmol/l [3H]-CER
  Cerivastatin uptake transport rate: 0.02±0.01 pmol/mg of protein/min
[12]
  Reduction in cerivastatin uptake: 40%

## CCCCC1=NC2(CCCC2)C(=O)N1Cc1ccc(-c2ccccc2-c2nnn[nH]2)cc1 [irbesartan, Irbesartan]
[1]; [13]
  Inhibition of OATP1B1-mediated uptake of cerivastatin (in words): did not inhibit
[4]; [14]
  Inhibition of OATP1B1-mediated uptake of ES (in words): did not inhibit

## Cc1c(OCC(F)(F)F)ccnc1C[S+]([O-])c1nc2ccccc2[nH]1 (centres unmarked) [lansoprazole]
[1]; [13]
  Inhibition of OATP1B1-mediated uptake of cerivastatin (in words): did not inhibit
[4]; [14]
  Inhibition of OATP1B1-mediated uptake of ES (in words): did not inhibit
